For data set [1] the following is noted: human.
Data set [2] can be described thus: Highest frequency of moderate liver toxicity observed during clinical trials, expressed as a percentage. [column '% BIOL' in source]. The note with it: human.
For data set [3] the following is noted: human, serum, 4383 h.
The conditions of data set [4]: human. This is another data set of the same source.
A short description of data set [5]: Highest frequency of acute liver toxicity observed during clinical trials, expressed as a percentage. [column '% AIGUE' in source]. As to conditions: human.
The conditions of data set [6]: human. The source holds these as a separate data set.
For data set [7] the following is noted: human, serum.
The conditions of data set [8]: human. The source holds these as a separate data set.
For data set [9] the following is noted: human. This is another data set of the same source.
The conditions of data set [10]: human. The source holds these as a separate data set.
The conditions of data set [11]: human. This is another data set of the same source.
The conditions of data set [12]: human, serum. The source holds these as a separate data set.
The conditions of data set [13]: human. The source holds these as a separate data set.
The conditions of data set [14]: human. This is another data set of the same source.
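For Hepatotoxicity (association with vascular disease) in this document: count of indexed literature references reporting vascular liver injury in humans, e.g. peliosis hepatitis, hepatic veno-occlusive disease or Budd-Chiari syndrome.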
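For Hepatotoxicity (benign tumour) in this document: value is a count of indexed literature references citing a benign tumour confirmed by histopathology.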
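For Hepatotoxicity (choleostasis) in this document: human cholestatic liver injury, shown by histopathology or by peak ALT or AST elevation over alkaline phosphatase ratio below 2, value counts indexed literature reports.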
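For Hepatotoxicity (chronic liver disease) in this document: chronic liver injury confirmed by histopathology or persistently raised serum aminotransferase activity beyond 6 months, value given as the count of indexed literature references.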
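For Hepatotoxicity (cirrhosis) in this document: value is a count of indexed literature references reporting cirrhosis confirmed by histopathology.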
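For Hepatotoxicity (cytolytic) in this document: human cytolytic liver injury, shown by histopathology or by a ratio above 5 of peak ALT or AST elevation to alkaline phosphatase elevation, value counts indexed references.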
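For Hepatotoxicity (granulomatous hepatitis) in this document: value is a count of indexed literature references reporting granulomatous liver disease confirmed by histopathology.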
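For Hepatotoxicity (malignant tumour) in this document: malignant tumour confirmed by histopathology, value gives the count of indexed literature references reporting it.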
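For Hepatotoxicity (severe hepatitis) in this document: human clinical data: severe hepatitis, meaning potentially life-threatening liver failure or clinically observed cases, the value counts how many indexed literature references report it.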
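For Hepatotoxicity (steatosis) in this document: steatosis confirmed by histopathology, value is the count of indexed references.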

For `CO/N=C(\C(=O)N[C@@H]1C(=O)N2C(C(=O)[O-])=C(C[n+]3cccc4c3CCC4)CS[C@H]12)c1csc(N)n1` [CEFPIROME], the “Hepatotoxicity (cirrhosis)” value in [1] worked out at 0. Also, the figures for the “Hepatotoxicity (moderate)” value in data set [2] and in data set [7] were 33.3% and 62, respectively. In addition, the “Hepatotoxicity (chronic liver disease)” value in data set [3] turned out to be 0. For the same compound, in [4], the “Hepatotoxicity (association with vascular disease)” value is reported as 0. Further, the “Hepatotoxicity (acute)” value in data set [5] was determined as 0%; in data set [12], 0. Besides, in [6], the “Hepatotoxicity (cytolytic)” value stood at 0. Moreover, the “Hepatotoxicity (steatosis)” value in data set [8] is reported as 0. In addition, the “Hepatotoxicity (severe hepatitis)” value in data set [9] was determined as 0. In data set [10], the “Hepatotoxicity (granulomatous hepatitis)” value worked out at 0. For the same compound, the “Hepatotoxicity (choleostasis)” value in [11] stood at 0. Also, the “Hepatotoxicity (benign tumour)” value in data set [13] worked out at 0. For the same compound, the “Hepatotoxicity (malignant tumour)” value in [14] turned out to be 0.

For the compound `COCC1=C(C(=O)OC(C)OC(=O)OC(C)C)N2C(=O)[C@@H](NC(=O)/C(=N\OC)c3csc(N)n3)[C@H]2SC1` (some centres undefined) [CEFPODOXIME PROXETIL], in [1], the “Hepatotoxicity (cirrhosis)” value was determined as 0. Besides, the “Hepatotoxicity (moderate)” value was 7.1% in data set [2] and 13 in [7]. The “Hepatotoxicity (chronic liver disease)” value in data set [3] is 0. In [4], the “Hepatotoxicity (association with vascular disease)” value came out at 0. Besides, the figures for the “Hepatotoxicity (acute)” value in data set [5] and in data set [12] were 0% and 0, respectively. Also, the “Hepatotoxicity (cytolytic)” value in [6] was 0. In addition, the “Hepatotoxicity (steatosis)” value in [8] is 0. For the same compound, the “Hepatotoxicity (severe hepatitis)” value in data set [9] worked out at 0. The “Hepatotoxicity (granulomatous hepatitis)” value in data set [10] is 0. In addition, the “Hepatotoxicity (choleostasis)” value in data set [11] amounted to 0. For the same compound, the “Hepatotoxicity (benign tumour)” value in data set [13] is 0. Besides, the “Hepatotoxicity (malignant tumour)” value in data set [14] worked out at 0.

In the case of `COCC1=C(C(=O)O)N2C(=O)[C@@H](NC(=O)/C(=N\OC)c3csc(N)n3)[C@H]2SC1` [CEFPODOXIME], the “Hepatotoxicity (cirrhosis)” value in data set [1] turned out to be 0. The “Hepatotoxicity (moderate)” value in data set [2] is recorded as 33.3%; in [7], 29. For the same compound, the “Hepatotoxicity (chronic liver disease)” value in data set [3] was determined as 0. Further, the “Hepatotoxicity (association with vascular disease)” value in data set [4] is on record as 0. Besides, the “Hepatotoxicity (acute)” value in [5] is given as 0%; in data set [12] it was 0. Besides, the “Hepatotoxicity (cytolytic)” value in [6] is given as 0. Further, the “Hepatotoxicity (steatosis)” value in data set [8] was 0. Further, the “Hepatotoxicity (severe hepatitis)” value in [9] is 0. In [10], the “Hepatotoxicity (granulomatous hepatitis)” value was determined as 0. For the same compound, the “Hepatotoxicity (choleostasis)” value in data set [11] is on record as 0. Besides, in data set [13], the “Hepatotoxicity (benign tumour)” value is 0. Besides, in data set [14], the “Hepatotoxicity (malignant tumour)” value came out at 0.

On to `CC=CC1=C(C(=O)O)N2C(=O)[C@@H](NC(=O)[C@H](N)c3ccc(O)cc3)[C@H]2SC1` [CEFPROZIL], for which the “Hepatotoxicity (cirrhosis)” value in [1] was 0. The “Hepatotoxicity (moderate)” value in data set [2] turned out to be 25%; in [7], 42. For the same compound, in data set [3], the “Hepatotoxicity (chronic liver disease)” value is listed as 0. Moreover, the “Hepatotoxicity (association with vascular disease)” value in data set [4] is reported as 0. Also, the results for the “Hepatotoxicity (acute)” value in data set [5] and in data set [12] were 0.6% and 1, respectively. The “Hepatotoxicity (cytolytic)” value in data set [6] is 0. Further, the “Hepatotoxicity (steatosis)” value in [8] was determined as 0. The “Hepatotoxicity (severe hepatitis)” value in data set [9] was 0. Besides, the “Hepatotoxicity (granulomatous hepatitis)” value in [10] is 0. Further, in [11], the “Hepatotoxicity (choleostasis)” value is listed as 1. Besides, the “Hepatotoxicity (benign tumour)” value in data set [13] came out at 0. The “Hepatotoxicity (malignant tumour)” value in data set [14] amounted to 0.

On to `COC1=C(C(=O)O)N2C(=O)[C@@H](NC(=O)[C@H](N)C3=CCC=CC3)[C@H]2SC1` [CEFROXADINE], for which the “Hepatotoxicity (cirrhosis)” value in data set [1] is given as 0. Also, the “Hepatotoxicity (moderate)” value in data set [2] was 2%; in data set [7], 1. The “Hepatotoxicity (chronic liver disease)” value in [3] was found to be 0. Besides, the “Hepatotoxicity (association with vascular disease)” value in [4] is listed as 0. The results for the “Hepatotoxicity (acute)” value in data set [5] and in data set [12] were 0% and 0, respectively. Further, the “Hepatotoxicity (cytolytic)” value in [6] is given as 0. For the same compound, in data set [8], the “Hepatotoxicity (steatosis)” value was 0. Further, the “Hepatotoxicity (severe hepatitis)” value in data set [9] is on record as 0. Besides, in data set [10], the “Hepatotoxicity (granulomatous hepatitis)” value turned out to be 0. Also, the “Hepatotoxicity (choleostasis)” value in data set [11] is recorded as 0. Besides, in data set [13], the “Hepatotoxicity (benign tumour)” value worked out at 0. The “Hepatotoxicity (malignant tumour)” value in data set [14] is given as 0.

With `NC(=O)c1cc[n+](CC2=C(C(=O)O)N3C(=O)[C@@H](NC(=O)[C@@H](c4ccccc4)S(=O)(=O)[O-])[C@H]3SC2)cc1` [CEFSULODIN], the “Hepatotoxicity (cirrhosis)” value in [1] is given as 0. For the same compound, the “Hepatotoxicity (moderate)” value in data set [2] is on record as 18.2%; in data set [7], 4. Further, the “Hepatotoxicity (chronic liver disease)” value in [3] is reported as 0. In addition, in [4], the “Hepatotoxicity (association with vascular disease)” value was 0. The “Hepatotoxicity (acute)” value in [5] came to 0%; in data set [12] it was 0. The “Hepatotoxicity (cytolytic)” value in data set [6] worked out at 0. Besides, the “Hepatotoxicity (steatosis)” value in [8] is reported as 0. Also, the “Hepatotoxicity (severe hepatitis)” value in data set [9] is listed as 0. Further, in data set [10], the “Hepatotoxicity (granulomatous hepatitis)” value came to 0. Moreover, in data set [11], the “Hepatotoxicity (choleostasis)” value stood at 0. The “Hepatotoxicity (benign tumour)” value in data set [13] stood at 0. The “Hepatotoxicity (malignant tumour)” value in data set [14] amounted to 0.

As for `Nc1nc(/C(=C/CC(=O)O)C(=O)N[C@@H]2C(=O)N3C(C(=O)O)=CCS[C@H]23)cs1` [CEFTIBUTEN], in data set [1], the “Hepatotoxicity (cirrhosis)” value is listed as 0. The results for the “Hepatotoxicity (moderate)” value in [2] and in data set [7] were 14.3% and 15, respectively. Also, in data set [3], the “Hepatotoxicity (chronic liver disease)” value stood at 0. For the same compound, the “Hepatotoxicity (association with vascular disease)” value in [4] was found to be 0. Moreover, the “Hepatotoxicity (acute)” value turned out to be 0% in data set [5] and 0 in data set [12]. The “Hepatotoxicity (cytolytic)” value in data set [6] stood at 0. Also, the “Hepatotoxicity (steatosis)” value in data set [8] is 0. Also, the “Hepatotoxicity (severe hepatitis)” value in [9] is reported as 0. Further, the “Hepatotoxicity (granulomatous hepatitis)” value in [10] came out at 0. In addition, the “Hepatotoxicity (choleostasis)” value in data set [11] came out at 0. In data set [13], the “Hepatotoxicity (benign tumour)” value was 0. The “Hepatotoxicity (malignant tumour)” value in data set [14] is given as 0.

As to `CO/N=C(\C(=O)N[C@@H]1C(=O)N2C(C(=O)O)=CCS[C@H]12)c1csc(N)n1` [CEFTIZOXIME], in data set [1], the “Hepatotoxicity (cirrhosis)” value was 0. Moreover, the results for the “Hepatotoxicity (moderate)” value in data set [2] and in [7] were 35% and 32, respectively. Besides, in data set [3], the “Hepatotoxicity (chronic liver disease)” value is 0. In addition, in data set [4], the “Hepatotoxicity (association with vascular disease)” value is 0. Also, the “Hepatotoxicity (acute)” value in data set [5] was 1.4%; in [12] it was 4. Also, the “Hepatotoxicity (cytolytic)” value in data set [6] came to 1. Further, the “Hepatotoxicity (steatosis)” value in data set [8] is given as 0. In [9], the “Hepatotoxicity (severe hepatitis)” value worked out at 0. In [10], the “Hepatotoxicity (granulomatous hepatitis)” value is 0. In addition, in data set [11], the “Hepatotoxicity (choleostasis)” value was determined as 1. The “Hepatotoxicity (benign tumour)” value in data set [13] was determined as 0. In addition, in data set [14], the “Hepatotoxicity (malignant tumour)” value turned out to be 0.

On to `CO/N=C(\C(=O)N[C@@H]1C(=O)N2C(C(=O)O)=C(CSc3cnns3)CS[C@H]12)c1csc(N)n1` [CEFUZONAM], for which the “Hepatotoxicity (cirrhosis)” value in [1] was 0. Moreover, the “Hepatotoxicity (moderate)” value in [2] is 14.3%; in data set [7], 19. Besides, in data set [3], the “Hepatotoxicity (chronic liver disease)” value was 0. In addition, the “Hepatotoxicity (association with vascular disease)” value in [4] worked out at 0. The “Hepatotoxicity (acute)” value in data set [5] was 0%; in data set [12], 0. The “Hepatotoxicity (cytolytic)” value in [6] is listed as 0. For the same compound, the “Hepatotoxicity (steatosis)” value in data set [8] is 0. Also, the “Hepatotoxicity (severe hepatitis)” value in [9] was determined as 0. The “Hepatotoxicity (granulomatous hepatitis)” value in [10] is on record as 0. Further, in data set [11], the “Hepatotoxicity (choleostasis)” value is recorded as 0. Besides, the “Hepatotoxicity (benign tumour)” value in data set [13] is given as 0. For the same compound, in data set [14], the “Hepatotoxicity (malignant tumour)” value amounted to 0.

On to `O=C(Cc1cccs1)N[C@@H]1C(=O)N2C(C(=O)[O-])=C(C[n+]3ccccc3)CS[C@H]12` [CEPHALORIDINE], for which the “Hepatotoxicity (cirrhosis)” value in [1] turned out to be 0. For the same compound, the “Hepatotoxicity (moderate)” value in [2] is reported as 0%; in data set [7] it was 1. Further, in [3], the “Hepatotoxicity (chronic liver disease)” value was 0. Also, the “Hepatotoxicity (association with vascular disease)” value in data set [4] came to 0. The “Hepatotoxicity (acute)” value in [5] is listed as 0%; in data set [12], 0. Moreover, in [6], the “Hepatotoxicity (cytolytic)” value is given as 0. In addition, the “Hepatotoxicity (steatosis)” value in [8] came to 0. Besides, the “Hepatotoxicity (severe hepatitis)” value in data set [9] was 0. The “Hepatotoxicity (granulomatous hepatitis)” value in [10] is 0. Besides, the “Hepatotoxicity (choleostasis)” value in [11] worked out at 0. Moreover, the “Hepatotoxicity (benign tumour)” value in data set [13] was 0. Further, the “Hepatotoxicity (malignant tumour)” value in data set [14] is recorded as 0.

As for `[H]/N=C(\N/C(=N/[H])NCCCCCCNC(=N)NC(=N)Nc1ccc(Cl)cc1)Nc1ccc(Cl)cc1` [CHLORHEXIDINE], in data set [1], the “Hepatotoxicity (cirrhosis)” value was found to be 0. The “Hepatotoxicity (moderate)” value is given as 0% in data set [2] and 0 in [7]. Also, the “Hepatotoxicity (chronic liver disease)” value in data set [3] was 0. For the same compound, the “Hepatotoxicity (association with vascular disease)” value in data set [4] was 0. The “Hepatotoxicity (acute)” value turned out to be 0% in data set [5] and 1 in [12]. In [6], the “Hepatotoxicity (cytolytic)” value is reported as 0. In addition, the “Hepatotoxicity (steatosis)” value in [8] amounted to 0. In addition, the “Hepatotoxicity (severe hepatitis)” value in data set [9] is 0. Also, the “Hepatotoxicity (granulomatous hepatitis)” value in data set [10] came to 0. Further, the “Hepatotoxicity (choleostasis)” value in data set [11] amounted to 0. Besides, in [13], the “Hepatotoxicity (benign tumour)” value came out at 0. In addition, the “Hepatotoxicity (malignant tumour)” value in data set [14] is reported as 0.

The record behind these values is ChEMBL document CHEMBL3137667, “[Drug-induced liver injury; fourteenth updated edition of the bibliographic database of liver injuries and related drugs]” (Gastroenterol Clin Biol, 2004).
